Values of other authors in PMC11387175, “Model informed dose regimen optimizing in development of leritrelvir for the treatment of mild or moderate COVID-19” (Frontiers in Pharmacology, 2024).
Where two headings read alike, the source gives them in different places.

System: Delta variant
Set-up: method as in Chen et al., 2023
Conditions: ref Chen et al., 2023, cited from earlier work

For `O=C(NC1CCCC1)C(=O)[C@H](C[C@@H]1CCNC1=O)NC(=O)[C@@H]1[C@H]2CCC[C@H]2CN1C(=O)[C@@H](NC(=O)C(F)(F)F)C1CCCCC1` [leritrelvir], the inhibition rate (300 mg/kg) is listed as 42.86%, the inhibition rate (600 mg/kg) is listed as 100% and the lung pathology is listed as “favorable enhancements”. For the same compound, the “viral titers in the lungs of mice after infection” value was “significantly reduced”.
